# Data from patent US20210087191A1, “SUBSTITUTED 3-ISOBUTYL-9,10-DIMETHOXY-1,3,4,6,7,11B-HEXAHYDRO-2H-PYRIDO[2,1-a]ISOQUINOLIN-2-OL COMPOUNDS, THEIR [sequence], AND USE THEREOF” (DISPERSOL TECHNOLOGIES, LLC, priority 2020, published 2021).
# Counter-ions that a name gives are not always drawn.
# Legend:
# [1] = Stability in human plasma (PS), LC-MS/MS; type: in vitro ADME; details: for half-life: read-out: Human PS t1/2
# Method: (§1) Metabolism of compound(s) to release (+)-α-DTHBZ was determined by the half-life (t1/2) and intrinsic clearance (CIint) in human plasma (PS) and liver microsomes (LM) using tandem mass spectrometry (LC-MS/MS).
# [2] = Metabolic stability in human liver microsomes (LM), LC-MS/MS (first table); type: in vitro ADME; details: for microsomal CLint: Table 1, read-out: Human LM CLint (μL/min/mg protein); for half-life: Table 1, read-out: Human LM t1/2
# Method: as §1
Human PS t1/2 (min) [1],microsomal CLint [2] [µL/min/mg],half-life [2] [h],half-life [1] [h],Human LM t1/2 (min) ([2]; Table 1),Structure (SMILES)
∞,3.24,6.91,–,–,"COc1cc2c(cc1OC)[C@@H]1C[C@H](OC(=O)C(=O)O)[C@@H](CC(C)C)CN1CC2 (stereo in doubt) [Example 1, (2S,3S,11bS)-9,10-dimethoxy-3-(2-methylpropyl)-1H,2H,3H,4H,6H,7H,11bH-pyrido[2,1-a]isoquinolin-2-yl hydrogen oxalate]"
–,–,–,12.7,∞,"COc1cc2c(cc1OC)[C@@H]1C[C@H](OC(=O)/C=C/C(=O)O)[C@@H](CC(C)C)CN1CC2 (stereo in doubt) [Example 3, (2E)-4-[[(2S,3S,11bS)-9,10-dimethoxy-3-(2-methylpropyl)-1H,2H,3H,4H,6H,7H,11bH-pyrido[2,1-a]isoquinolin-2-yl]oxy]-4-oxobut-2-enoic acid]"
–,< 3.4,> 3.39,55,–,"COc1cc2c(cc1OC)[C@H]1C[C@@H](OC(=O)/C=C\C(=O)O)[C@H](CC(C)C)CN1CC2 [Example 4, (2Z)-4-[[(2R,3R,11bR)-9,10-dimethoxy-3-(2-methylpropyl)-1H,2H,3H,4H,6H,7H,11bH-pyrido[2,1-a]isoquinolin-2-yl]oxy]-4-oxobut-2-enoic acid]"
–,98,0.118,> 11.8,–,"COc1cc2c(cc1OC)[C@H]1C[C@@H](OC(=O)/C=C/C(=O)OC(C)C)[C@H](CC(C)C)CN1CC2 [Example 8, (2R,3R,11bR)-9,10-dimethoxy-3-(2-methylpropyl)-1H,2H,3H,4H,6H,7H,11bH-pyrido[2,1-a]isoquinolin-2-yl 1-isopropyl (2E)-but-2-enedioate]"
–,104,0.111,> 3770,–,"COc1cc2c(cc1OC)[C@H]1C[C@@H](OC(=O)/C=C\C(=O)OC(C)C)[C@H](CC(C)C)CN1CC2 [Example 10, (2R,3R,11bR)-9,10-dimethoxy-3-(2-methylpropyl)-1H,2H,3H,4H,6H,7H,11bH-pyrido[2,1-a]isoquinolin-2-yl 1-isopropyl (2Z)-but-2-enedioate]"
–,4.24,2.95,0.225,–,"COc1cc2c(cc1OC)[C@H]1C[C@@H](OC(=O)/C=C/C(=O)N[C@H](C(=O)O)C(C)C)[C@H](CC(C)C)CN1CC2 [Example 11, (2S)-2-[(2E)-4-[[(2R,3R,11bR)-9,10-dimethoxy-3-(2-methylpropyl)-1H,2H,3H,4H,6H,7H,11bH-pyrido[2,1-a]isoquinolin-2-yl]oxy]-4-oxobut-2-enamido]-3-methylbutanoic acid]"
–,2.91,4.16,0.2,–,"COc1cc2c(cc1OC)[C@H]1C[C@@H](OC(=O)/C=C\C(=O)N[C@@H](Cc3ccccc3)C(=O)O)[C@H](CC(C)C)CN1CC2 [Example 14, (2S)-2-[(2Z)-4-[[(2R,3R,11bR)-9,10-dimethoxy-3-(2-methylpropyl)-1H,2H,3H,4H,6H,7H,11bH-pyrido[2,1-a]isoquinolin-2-yl]oxy]-4-oxobut-2-enamido]-3-phenylpropanoic acid]"
–,1.11,20.8,> 11,–,"COc1cc2c(cc1OC)[C@H]1C[C@@H](OC(=O)/C=C/C(=O)O[C@@H]3C[C@@H]4c5cc(OC)c(OC)cc5CCN4C[C@H]3CC(C)C)[C@H](CC(C)C)CN1CC2 [Example 18, bis[(2R,3R,11bR)-9,10-dimethoxy-3-(2-methylpropyl)-1H,2H,3H,4H,6H,7H,11bH-pyrido[2,1-a]isoquinolin-2-yl] (2E)-but-2-enedioate]"
–,0.84,> 13.7,134,–,"COc1cc2c(cc1OC)[C@H]1C[C@@H](OC(=O)/C=C\C(=O)O[C@@H]3C[C@@H]4c5cc(OC)c(OC)cc5CCN4C[C@H]3CC(C)C)[C@H](CC(C)C)CN1CC2 [Example 19, bis[(2R,3R,11bR)-9,10-dimethoxy-3-(2-methylpropyl)-1H,2H,3H,4H,6H,7H,11bH-pyrido[2,1-a]isoquinolin-2-yl] (2Z)-but-2-enedioate]"
–,3.83,3.2,1.35,–,"COc1cc2c(cc1OC)[C@H]1C[C@@H](OC(=O)C(=O)O[C@@H]3C[C@@H]4c5cc(OC)c(OC)cc5CCN4C[C@H]3CC(C)C)[C@H](CC(C)C)CN1CC2 [Example 20, Bis[(2R,3R,11bR)-9,10-dimethoxy-3-(2-methylpropyl)-1H,2H,3H,4H,6H,7H,11bH-pyrido[2,1-a]isoquinolin-2-yl] oxalate]"
–,1.67,8.05,> 341,–,"CCNC(=O)O[C@@H]1C[C@@H]2c3cc(OC)c(OC)cc3CCN2C[C@H]1CC(C)C [Example 21, (2R,3R,11bR)-9,10-dimethoxy-3-(2-methylpropyl)-1H,2H,3H,4H,6H,7H,11bH-pyrido[2,1-a]isoquinolin-2-yl N-ethylcarbamate]"
–,5.15,2.31,> 65.5,–,"COc1cc2c(cc1OC)[C@H]1C[C@@H](OC(=O)NC(C)C)[C@H](CC(C)C)CN1CC2 [Example 22, (2R,3R,11bR)-9,10-dimethoxy-3-(2-methylpropyl)-1H,2H,3H,4H,6H,7H,11bH-pyrido[2,1-a]isoquinolin-2-yl N-isopropylcarbamate]"
–,–,–,1.42,–,"CCC(=O)OCOC(=O)O[C@@H]1C[C@@H]2c3cc(OC)c(OC)cc3CCN2C[C@H]1CC(C)C [Example 24, [([[(2R,3R,11bR)-9,10-dimethoxy-3-(2-methylpropyl)-1H,2H,3H,4H,6H,7H,11bH-pyrido[2,1-a]isoquinolin-2-yl]oxy]carbonyl)oxy]methylpropanoate]"
–,–,–,1.98,–,"COc1cc2c(cc1OC)[C@H]1C[C@@H](OC(=O)OCOC(=O)C(C)C)[C@H](CC(C)C)CN1CC2 [Example 25, [([[(2R,3R,11bR)-9,10-dimethoxy-3-(2-methylpropyl)-1H,2H,3H,4H,6H,7H,11bH-pyrido[2,1-a]isoquinolin-2-yl]oxy]carbonyl)oxy]methyl 2-methylpropanoate]"
–,1380,0.00833,1.39,–,"COc1cc2c(cc1OC)[C@H]1C[C@@H](OC(=O)OCOC(=O)CC(C)C)[C@H](CC(C)C)CN1CC2 [Example 26, [([[(2R,3R,11bR)-9,10-dimethoxy-3-(2-methylpropyl)-1H,2H,3H,4H,6H,7H,11bH-pyrido[2,1-a]isoquinolin-2-yl]oxy]carbonyl)oxy]methyl 3-methylbutanoate]"
